In patent publication US12552825B2 (Zikani Therapeutics, Inc., priority 2019, dated 2026):
Converted amounts (≈) assume the structure as drawn.

How the values were obtained:
Type in all cases: cell-based
P. aeruginosa MP-3 = test: MIC determination by CLSI broth dilution, P. aeruginosa MP-3; settings: Pseudomonas aeruginosa, MP3, strain MP-3
E. coli MP-4 = test: MIC determination by CLSI broth dilution, E. coli MP-4; settings: Escherichia coli, MP4, CLSI broth dilution; strain MP-4
S. aureus MP-12 = test: microbe, parasite or virus in culture; settings: Staphylococcus aureus, MP12, read-out: MIC S. aureus MP-12
A. baumannii MP-15 = test: MIC determination by CLSI broth dilution, A. baumannii MP-15; settings: Acinetobacter baumannii, MP15, strain MP-15, read-out: MIC A. baumanii MP-15
K. pneumoniae MP-648 = test: MIC determination by CLSI broth dilution, K. pneumoniae MP-648; settings: Klebsiella pneumoniae, MP648, CLSI broth dilution; strain MP-648
K. pneumoniae MP-546 = test: MIC determination by CLSI broth dilution, K. pneumoniae MP-546; settings: Klebsiella pneumoniae, MP546, CLSI broth dilution; strain MP-546

Row | Compound | MIC (P. aeruginosa MP-3) [µg/mL] | MIC (E. coli MP-4) [µg/mL] | MIC (S. aureus MP-12) [µg/mL] | MIC (A. baumannii MP-15) [µg/mL] | MIC (K. pneumoniae MP-648) [µg/mL] | MIC (K. pneumoniae MP-546) [µg/mL]
1 | CO[C@]1(C)C[C@@H](C)CN(C)[C@@H](CCCN2CCC(O)CC2)COC(=O)C(C)(C)C(=O)[C@H](C)[C@H]1O[C@@H]1O[C@H](C)C[C@H](N(C)C)[C@H]1O [Compound 92, (3S,6R,8R,9R,10R)-9-(((2S,3R,4S,6R)-4-(dimethylamino)-3-hydroxy-6-methyltetrahydro-2H-pyran-2-yl)oxy)-3-(3-(4-hydroxypiperidin-1-yl)propyl)-8-methoxy-4,6,8,10,12,12-hexamethyl-1-oxa-4-azacyclotridecane-11,13-dione] | > 32 | < 4 | > 32 | > 32 | 4 to 32 (≈ 6.23 to 49.9 µM) | 4 to 32 (≈ 6.23 to 49.9 µM)
2 | CO[C@]1(C)C[C@@H](C)CN(C)[C@H](CCCN2CCCCC2)COC(=O)C(C)(C)C(=O)[C@H](C)[C@H]1O[C@@H]1O[C@H](C)C[C@H](N(C)C)[C@H]1O [Compound 93, (3R,6R,8R,9R,10R)-9-(((2S,3R,4S,6R)-4-(dimethylamino)-3-hydroxy-6-methyltetrahydro-2H-pyran-2-yl)oxy)-8-methoxy-4,6,8,10,12,12-hexamethyl-3-(3-(piperidin-1-yl)propyl)-1-oxa-4-azacyclotridecane-11,13-dione] | > 32 | < 4 | 4 to 32 (≈ 6.39 to 51.1 µM) | > 32 | < 4 | < 4
3 | CCCN1C[C@H](C)C[C@@](C)(OC)[C@H](O[C@@H]2O[C@H](C)C[C@H](N(C)C)[C@H]2O)[C@@H](C)C(=O)C(C)(C)C(=O)OC[C@H]1CC1CCN(C)CC1 [Compound 95, (3R,6R,8R,9R,10R)-9-(((2S,3R,4S,6R)-4-(dimethylamino)-3-hydroxy-6-methyltetrahydro-2H-pyran-2-yl)oxy)-8-methoxy-6,8,10,12,12-pentamethyl-3-((1-methylpiperidin-4-yl)methyl)-4-propyl-1-oxa-4-azacyclotridecane-11,13-dione] | > 32 | < 4 | 4 to 32 (≈ 6.25 to 50 µM) | 4 to 32 (≈ 6.25 to 50 µM) | < 4 | < 4
4 | CCCN1CCC(C[C@@H]2COC(=O)C(C)(C)C(=O)[C@H](C)[C@@H](O[C@@H]3O[C@H](C)C[C@H](N(C)C)[C@H]3O)[C@](C)(OC)C[C@@H](C)CN2CCC)CC1 [Compound 96, (3R,6R,8R,9R,10R)-9-(((2S,3R,4S,6R)-4-(dimethylamino)-3-hydroxy-6-methyltetrahydro-2H-pyran-2-yl)oxy)-8-methoxy-6,8,10,12,12-pentamethyl-4-propyl-3-((1-propylpiperidin-4-yl)methyl)-1-oxa-4-azacyclotridecane-11,13-dione] | > 32 | < 4 | 4 to 32 (≈ 5.99 to 47.9 µM) | > 32 | 4 to 32 (≈ 5.99 to 47.9 µM) | < 4
5 | CCN1C[C@H](C)C[C@@](C)(OC)[C@H](O[C@@H]2O[C@H](C)C[C@H](N(C)C)[C@H]2O)[C@@H](C)C(=O)C(C)(C)C(=O)OC[C@H]1CC1CCN(C)CC1 [Compound 98, (3R,6R,8R,9R,10R)-9-(((2S,3R,4S,6R)-4-(dimethylamino)-3-hydroxy-6-methyltetrahydro-2H-pyran-2-yl)oxy)-4-ethyl-8-methoxy-6,8,10,12,12-pentamethyl-3-((1-methylpiperidin-4-yl)methyl)-1-oxa-4-azacyclotridecane-11,13-dione] | > 32 | < 4 | 4 to 32 (≈ 6.39 to 51.1 µM) | > 32 | < 4 | < 4
6 | CO[C@]1(C)C[C@@H](C)CN(C)[C@@H](CCCN(C)C2CCCC2)COC(=O)C(C)(C)C(=O)[C@H](C)[C@H]1O[C@@H]1O[C@H](C)C[C@H](N(C)C)[C@H]1O [Compound 99, (3S,6R,8R,9R,10R)-3-(3-(cyclopentyl(methyl)amino)propyl)-9-(((2S,3R,4S,6R)-4-(dimethylamino)-3-hydroxy-6-methyltetrahydro-2H-pyran-2-yl)oxy)-8-methoxy-4,6,8,10,12,12-hexamethyl-1-oxa-4-azacyclotridecane-11,13-dione] | > 32 | < 4 | 4 to 32 (≈ 6.25 to 50 µM) | > 32 | < 4 | < 4
7 | CCCN1CCC(C[C@@H]2COC(=O)C(C)(C)C(=O)[C@H](C)[C@@H](O[C@@H]3O[C@H](C)C[C@H](N(C)C)[C@H]3O)[C@](C)(OC)C[C@@H](C)CN2CC)CC1 [Compound 102, (3R,6R,8R,9R,10R)-9-(((2S,3R,4S,6R)-4-(dimethylamino)-3-hydroxy-6-methyltetrahydro-2H-pyran-2-yl)oxy)-4-ethyl-8-methoxy-6,8,10,12,12-pentamethyl-3-((1-propylpiperidin-4-yl)methyl)-1-oxa-4-azacyclotridecane-11,13-dione] | > 32 | < 4 | 4 to 32 (≈ 6.12 to 48.9 µM) | 4 to 32 (≈ 6.12 to 48.9 µM) | < 4 | < 4
8 | CO[C@]1(C)C[C@@H](C)CN(C)[C@@H](CCCN2CCC(F)CC2)COC(=O)C(C)(C)C(=O)[C@H](C)[C@H]1O[C@@H]1O[C@H](C)C[C@H](N(C)C)[C@H]1O [Compound 103, (3S,6R,8R,9R,10R)-9-(((2S,3R,4S,6R)-4-(dimethylamino)-3-hydroxy-6-methyltetrahydro-2H-pyran-2-yl)oxy)-3-(3-(4-fluoropiperidin-1-yl)propyl)-8-methoxy-4,6,8,10,12,12-hexamethyl-1-oxa-4-azacyclotridecane-11,13-dione] | > 32 | < 4 | 4 to 32 (≈ 6.21 to 49.7 µM) | > 32 | < 4 | < 4
9 | CO[C@]1(C)C[C@@H](C)CN(C)[C@@H](CCCN2CCOCC2)COC(=O)C(C)(C)C(=O)[C@H](C)[C@H]1O[C@@H]1O[C@H](C)C[C@H](N(C)C)[C@H]1O [Compound 105, (3S,6R,8R,9R,10R)-9-(((2S,3R,4S,6R)-4-(dimethylamino)-3-hydroxy-6-methyltetrahydro-2H-pyran-2-yl)oxy)-8-methoxy-4,6,8,10,12,12-hexamethyl-3-(3-morpholinopropyl)-1-oxa-4-azacyclotridecane-11,13-dione] | > 32 | < 4 | 4 to 32 (≈ 6.37 to 51 µM) | > 32 | 4 to 32 (≈ 6.37 to 51 µM) | 4 to 32 (≈ 6.37 to 51 µM)
10 | CO[C@]1(C)C[C@@H](C)CN(C)[C@@H](CCCN2CCCC2)COC(=O)C(C)(C)C(=O)[C@H](C)[C@H]1O[C@@H]1O[C@H](C)C[C@H](N(C)C)[C@H]1O [Compound 107, (3S,6R,8R,9R,10R)-9-(((2S,3R,4S,6R)-4-(dimethylamino)-3-hydroxy-6-methyltetrahydro-2H-pyran-2-yl)oxy)-8-methoxy-4,6,8,10,12,12-hexamethyl-3-(3-(pyrrolidin-1-yl)propyl)-1-oxa-4-azacyclotridecane-11,13-dione] | > 32 | < 4 | 4 to 32 (≈ 6.54 to 52.3 µM) | > 32 | < 4 | < 4
11 | CO[C@]1(C)C[C@@H](C)CN(C)[C@@H](CCCN2CC[C@@H](F)C2)COC(=O)C(C)(C)C(=O)[C@H](C)[C@H]1O[C@@H]1O[C@H](C)C[C@H](N(C)C)[C@H]1O [Compound 108, (3S,6R,8R,9R,10R)-9-(((2S,3R,4S,6R)-4-(dimethylamino)-3-hydroxy-6-methyltetrahydro-2H-pyran-2-yl)oxy)-3-(3-((R)-3-fluoropyrrolidin-1-yl)propyl)-8-methoxy-4,6,8,10,12,12-hexamethyl-1-oxa-4-azacyclotridecane-11,13-dione] | > 32 | < 4 | 4 to 32 (≈ 6.35 to 50.8 µM) | > 32 | < 4 | < 4
12 | CO[C@]1(C)C[C@@H](C)CN(C)[C@@H](CCCN2CCC(F)(F)CC2)COC(=O)C(C)(C)C(=O)[C@H](C)[C@H]1O[C@@H]1O[C@H](C)C[C@H](N(C)C)[C@H]1O [Compound 110, (3S,6R,8R,9R,10R)-3-(3-(4,4-difluoropiperidin-1-yl)propyl)-9-(((2S,3R,4S,6R)-4-(dimethylamino)-3-hydroxy-6-methyltetrahydro-2H-pyran-2-yl)oxy)-8-methoxy-4,6,8,10,12,12-hexamethyl-1-oxa-4-azacyclotridecane-11,13-dione] | > 32 | < 4 | 4 to 32 (≈ 6.04 to 48.3 µM) | > 32 | 4 to 32 (≈ 6.04 to 48.3 µM) | 4 to 32 (≈ 6.04 to 48.3 µM)
13 | CO[C@]1(C)C[C@@H](C)CN(C)[C@H](C[C@H]2C[C@H](N(C)C)C2)COC(=O)C(C)(C)C(=O)[C@H](C)[C@H]1O[C@@H]1O[C@H](C)C[C@H](N(C)C)[C@H]1O [Compound 111, (3R,6R,8R,9R,10R)-9-(((2S,3R,4S,6R)-4-(Dimethylamino)-3-hydroxy-6-methyltetrahydro-2H-pyran-2-yl)oxy)-3-(((1r,3S)-3-(dimethylamino)cyclobutyl)methyl)-8-methoxy-4,6,8,10,12,12-hexamethyl-1-oxa-4-azacyclotridecane-11,13-dione] | > 32 | < 4 | 4 to 32 (≈ 6.54 to 52.3 µM) | > 32 | < 4 | < 4
14 | CO[C@]1(C)C[C@@H](C)CN(C)[C@@H](CCCN2Cc3ccccc3C2)COC(=O)C(C)(C)C(=O)[C@H](C)[C@H]1O[C@@H]1O[C@H](C)C[C@H](N(C)C)[C@H]1O [Compound 112] | > 32 | < 4 | < 4 | 4 to 32 (≈ 6.06 to 48.5 µM) | < 4 | < 4
15 | CCN1C[C@H](C)C[C@@](C)(OC)[C@H](O[C@@H]2O[C@H](C)C[C@H](N(C)C)[C@H]2O)[C@@H](C)C(=O)C(C)(C)C(=O)OC[C@H]1CCCN1CCCC1 [Compound 113, (3R,6R,8R,9R,10R)-9-(((2S,3R,4S,6R)-4-(dimethylamino)-3-hydroxy-6-methyltetrahydro-2H-pyran-2-yl)oxy)-4-ethyl-8-methoxy-6,8,10,12,12-pentamethyl-3-(3-(pyrrolidin-1-yl)propyl)-1-oxa-4-azacyclotridecane-11,13-dione] | > 32 | < 4 | < 4 | > 32 | < 4 | < 4
